± gives the expanded uncertainty stated by the source.
Conditions: 101 kPa, Liquid
[1] = 273.15 K, Buoyancy - hydrostatic balance
[2] = 283.15 K, Buoyancy - hydrostatic balance
[3] = 293.15 K, Buoyancy - hydrostatic balance
[4] = 303.15 K, Buoyancy - hydrostatic balance
[5] = 313.15 K, Buoyancy - hydrostatic balance
[6] = 323.15 K, Buoyancy - hydrostatic balance
[7] = 333.15 K, Buoyancy - hydrostatic balance
[8] = 343.15 K, Buoyancy - hydrostatic balance
[9] = 353.15 K, Buoyancy - hydrostatic balance
[10] = 363.15 K, Buoyancy - hydrostatic balance
[11] = 373.15 K, Buoyancy - hydrostatic balance
[12] = 383.15 K, Buoyancy - hydrostatic balance
[13] = 393.15 K, Buoyancy - hydrostatic balance
[14] = 403.15 K, Buoyancy - hydrostatic balance
[15] = 413.15 K, Buoyancy - hydrostatic balance
[16] = 423.15 K, Buoyancy - hydrostatic balance
[17] = 433.15 K, Buoyancy - hydrostatic balance
[18] = 443.15 K, Buoyancy - hydrostatic balance
[19] = 453.15 K, Buoyancy - hydrostatic balance
[20] = 463.15 K, Buoyancy - hydrostatic balance

| SMILES | mass density [1] [kg/m3] | mass density (273.15 K, Pycnometric method) [kg/m3] | mass density [2] [kg/m3] | mass density (283.15 K, Pycnometric method) [kg/m3] | mass density [3] [kg/m3] | mass density (293.15 K, Pycnometric method) [kg/m3] | mass density [4] [kg/m3] | mass density (303.15 K, Pycnometric method) [kg/m3] | mass density [5] [kg/m3] | mass density (313.15 K, Pycnometric method) [kg/m3] | mass density [6] [kg/m3] | mass density (323.15 K, Pycnometric method) [kg/m3] | mass density [7] [kg/m3] | mass density (333.15 K, Pycnometric method) [kg/m3] | mass density [8] [kg/m3] | mass density (343.15 K, Pycnometric method) [kg/m3] | mass density [9] [kg/m3] | mass density (353.15 K, Pycnometric method) [kg/m3] | mass density [10] [kg/m3] | mass density (363.15 K, Pycnometric method) [kg/m3] | also measured |
| --- | --- | --- | --- | --- | --- | --- | --- | --- | --- | --- | --- | --- | --- | --- | --- | --- | --- | --- | --- | --- | --- |
| CC(O)CO (configuration not stated) [1,2-propanediol] | 1051.77 ± 0.21 | 1052.17 ± 0.35 | 1044.65 ± 0.21 | 1044.74 ± 0.33 | 1037.13 ± 0.21 | 1037.22 ± 0.31 | 1029.87 ± 0.21 | 1029.64 ± 0.32 | 1022.37 ± 0.21 | 1021.98 ± 0.34 | 1014.64 ± 0.2 | 1014.25 ± 0.35 | 1006.75 ± 0.2 | 1006.45 ± 0.37 | 998.71 ± 0.2 | 998.57 ± 0.38 | 990.77 ± 0.2 | 990.62 ± 0.4 | 982.38 ± 0.2 | 982.6 ± 0.41 | mass density [11]: 973.81 ± 0.2 kg/m3; mass density [12]: 965.04 ± 0.19 kg/m3; mass density [13]: 956.09 ± 0.19 kg/m3; mass density [14]: 946.95 ± 0.19 kg/m3; mass density [15]: 937.62 ± 0.19 kg/m3; mass density [16]: 928.1 ± 0.19 kg/m3; mass density [17]: 918.39 ± 0.18 kg/m3; mass density [18]: 908.5 ± 0.18 kg/m3; mass density [19]: 898.41 ± 0.18 kg/m3; mass density [20]: 888.14 ± 0.18 kg/m3 |
| CCCCCCC [heptane] |  |  |  |  | 683.65 ± 0.14 | 683.67 ± 1 |  |  |  |  |  |  |  |  |  |  |  |  |  |  | mass density (301.62 K, Buoyancy - hydrostatic balance): 675.96 ± 0.14 kg/m3; mass density (301.62 K, Pycnometric method): 675.75 ± 1 kg/m3; mass density (310.71 K, Buoyancy - hydrostatic balance): 668.05 ± 0.13 kg/m3; mass density (310.71 K, Pycnometric method): 667.37 ± 1 kg/m3; mass density (319.85 K, Buoyancy - hydrostatic balance): 660.16 ± 0.13 kg/m3; mass density (319.85 K, Pycnometric method): 659.85 ± 1 kg/m3; mass density (329.04 K, Buoyancy - hydrostatic balance): 652.58 ± 0.13 kg/m3; mass density (329.04 K, Pycnometric method): 651.92 ± 1 kg/m3; mass density (338.26 K, Buoyancy - hydrostatic balance): 644.01 ± 0.13 kg/m3; mass density (338.26 K, Pycnometric method): 644.32 ± 1 kg/m3; mass density (347.53 K, Buoyancy - hydrostatic balance): 635.57 ± 0.13 kg/m3; mass density (347.53 K, Pycnometric method): 635.91 ± 1 kg/m3; mass density (356.84 K, Buoyancy - hydrostatic balance): 627.05 ± 0.13 kg/m3; mass density (356.84 K, Pycnometric method): 627.85 ± 1 kg/m3 |
| OCCO [1,2-ethanediol] | 1127.2 ± 0.23 | 1127.05 ± 0.38 | 1120.58 ± 0.23 | 1120.5 ± 0.36 | 1113.84 ± 0.22 | 1113.84 ± 0.35 | 1106.98 ± 0.22 | 1107.07 ± 0.36 | 1099.99 ± 0.22 | 1100.19 ± 0.37 | 1092.88 ± 0.22 | 1093.2 ± 0.39 | 1085.65 ± 0.22 | 1086.11 ± 0.4 | 1078.29 ± 0.22 | 1078.91 ± 0.42 | 1070.8 ± 0.22 | 1071.6 ± 0.44 | 1063.2 ± 0.21 | 1064.18 ± 0.45 | mass density [11]: 1055.47 ± 0.21 kg/m3; mass density [12]: 1047.62 ± 0.21 kg/m3; mass density [13]: 1039.64 ± 0.21 kg/m3; mass density [14]: 1031.53 ± 0.21 kg/m3; mass density [15]: 1023.31 ± 0.21 kg/m3; mass density [16]: 1014.96 ± 0.2 kg/m3; mass density [17]: 1006.48 ± 0.2 kg/m3; mass density [18]: 997.88 ± 0.2 kg/m3; mass density [19]: 989.16 ± 0.2 kg/m3; mass density [20]: 980.31 ± 0.2 kg/m3; mass density (473.15 K, Buoyancy - hydrostatic balance): 971.34 ± 0.2 kg/m3 |

From the NIST ThermoML archive (doi:10.1021/acs.jced.8b00028)
